{
  "source": "patent US8178579B2",
  "about": "“Dioxanes and uses thereof” (President and Fellows of Harvard College, priority 2001, dated 2012)",
  "key": {"[1]": {"tested_on": "zebrafish (Danio rerio) embryos", "test": "phenotypic assay with 16-cell zebrafish embryos", "type": "in vivo", "conditions": "60 μM, 18 h (24 h in FIG. 22B) post-fertilization", "description": "To determine the effect of these compounds on whole organism development, a phenotypic assay was performed using 16-cell zebrafish (Danio rerio) embryos (Stockwell et al. Chem. Biol. 1999, 6, 71-83) with 1300 compounds from the 1,3-dioxane library. […] The folded notochord phenotype has also been observed through genetic mutant screens^32 for the gul^m208 and lev^m531 mutations. The 1,3-diol (13) may target these gene products or other proteins involved in the same biological pathway. Dissection of the pathways involved in notochord development may be complemented by small molecule ligands for proteins in those pathways."}, "[2]": {"tested_on": "microtubules in A549 cells", "test": "microtubule stability to nocodazole, cold or calcium depolymerization and repolymerization", "type": "cell-based, human", "conditions": "tubacin 2 μM, ITSA1 50 μM", "description": "Detection of acetylated α-tubulin and acetylated histones by immunofluorescence was performed as described in Example 6 above. For determining microtubule stability, A549 cells were treated as indicated, fixed in glutaraldehyde, and stained for acetylated α-tubulin and total α-tubulin in antibody dilution buffer (ADB, Tris-buffered saline (TBS), 0.15 M NaCl, 0.02 M Tris-Cl, pH 7.4, with 2% bovine serum albumin and 0.1% Triton-X 100). For cold-depolymerization, cells were incubated at 4° C. or 37° C. for an additional 90 minutes before fixation. For calcium depolymerization, cells were incubated at 37° C. for 10 minutes in a microtubule-stabilizing buffer (0.2% NP-40, 5 mM MgCl2, 2 mM EGTA, 2 M glycerol, 100 mM PIPES, pH 6.8) with and without the addition of CaCl2 (2 mM) before glutaraldehyde fixation. For co-localization experiments, biotubacin (50 μM) treated A549 cells were fixed in 3.7% formaldehyde in TBS and processed as for detecting acetylated α-tubulin (See Example 6 above) with biotubacin detected using streptavidin-TR (1:500). HDAC6 was detected using a rabbit polyclonal antibody (1:250-1:750; C.M.G., unpublished data) under the conditions used to detect acetylated α-tubulin (See Example 6 above). Filamentous actin in HT-1080 cells was detected using TR-conjugated phalloidin (1 μg/mL), and depolymerized actin using FITC-conjugated deoxyribonuclease (10 μg/mL), following fixation in 3.7% formaldehyde in TBS. p58 (1:100) in NIH-3T3 cells was detected after fixation in 3.7% formaldehyde in TBS. Images for these experiments were collected on a Zeiss LSM510 confocal scanning laser microscope at the appropriate wavelengths using the accompanying software and processed with Adobe Photoshop. Deconvoluted serial images of TSA and DMSO treated A549 cells were obtained by taking sections (8μ) on a Zeiss Axioskop 2 microscope using an AxioCam camera and the accompanying software. Rat hippocampal neuronal cultures were fixed at room temperature for 15 min in phosphate-buffered saline (PBS) containing 4% paraformaldehyde. […]"}, "[3]": {"tested_on": "α-tubulin acetylation in the presence of ITSA1", "conditions": "cited from earlier work"}, "α-tubulin deacetylation": {"tested_on": "α-tubulin deacetylation", "test": "acetylated α-tubulin in cells (AcTubulin cytoblot, immunofluorescence, Western blot)", "type": "cell-based, human", "conditions": "A549 (also BS-C-1) cells, tubacin/JCWII114, niltubacin/JCWII153 2 μM, TSA 100 nM-4 μM, library ~2-5 μM, 18 h", "description": "(§1) A549 cells were seeded at a density of 4,000 cells/50 μl in DMEM+ in white tissue culture-treated 384-well plates (Nalge Nunc) using a Multidrop 384 liquid dispenser (Labsystems). Library small molecules were pinned twice (100-150 nl/pin) from ˜1 mM stock solutions (DMSO) and incubated for 18 hours. For the ITSA1+AcTubulin assay, ITSA1 (50 μM) was added four hours after pin-transfer of library molecules. Media was aspirated with a 16-channel wand. For the acetylated α-tubulin cytoblot (AcTubulin), 40 μl/well of fixation solution (3.7% formaldehyde (1:10 from 37% stock) in Tris-buffered saline (TBS, 0.15 M NaCl, 0.02 M Tris-Cl, pH 7.4) was added and plates incubated for twenty minutes at room temperature. After aspiration, 30 μl 100% methanol (−20° C.) was added and incubated for five minutes at room temperature. After aspirating and washing three times with 90 μl of antibody dilution buffer (ADB, TBS/2% bovine serum albumin, 0.1% TritonX-100) the wells were blocked for twenty minutes in ADB. After aspirating, 20 μl/well of ADB containing anti-acetylated α-tubulin antibody (mouse; 1:1000) and anti-mouse IgG horseradish peroxidase (HRP)-conjugated antibody (1:750) was added and incubated overnight (4° C.). For the anti-acetyl lysine cytoblot (AcLysine), 40 μl/well of fixation solution (95% ethanol/5% acetic acid, −20° C.) was added and plates incubated for five minutes at room temperature. Wells were aspirated, washed, and blocked in ADB as for the AcTubulin protocol. After aspirating, 20 μl/well of ADB containing anti-acetylated lysine (rabbit; 1:375) and anti-rabbit IgG-HRP conjugated antibody (1:750) was added and incubated overnight (4° C.). For the anti-acetylated histone H3 (AcHistH3) and anti-acetylated histone H4 (AcHistH4) cytoblots, cells were fixed, washed, and blocked in ADB as for the AcLysine cytoblot. After aspirating, 20 μl/well of ADB containing anti-acetylated histone H3 antibody (rabbit, 1:500) or anti-acetylated histone H4 antibody (rabbit, 1:500) was added and incubated for two hours at room temperature. Wells were aspirated and washed twice with 80 μl of ADB. After aspirating, 20 μl/well of ADB containing anti-rabbit IgG-HRP conjugated antibody (1:1000) was added and incubated for two hours (room temperature). For the AcTubulin and AcLysine assays, plates were washed three times with TBS before adding 20 μl/well of enhanced chemiluminescent (ECL) mixture. For the AcHistH3 and AcHistH4 assays, plates were washed three times with 80 μl TBS with 1% Triton X-100 and once with 80 μl TBS before adding 20 μl/well of ECL mixture. Plates were read on an Analyst plate reader (LJL Biosystems) with an integration time of 0.1 seconds.\n(§2) 1,3-dioxanes from single polystyrene macrobeads were prepared as 1-2 mM stock solutions in DMSO as described [Hubbert, C., Guardiola, A., Shao, R., Kawaguchi, Y., Ito, A., Nixon, A., Yoshida, M., Wang, X. F., and Yao, T. P. (2002). HDAC6 is a microtubule-associated deacetylase. Nature 417, 455-458]. Bead decoding and structure determination were as described [See for example, Hubbert, C., Guardiola, A., Shao, R., Kawaguchi, Y., Ito, A., Nixon, A., Yoshida, M., Wang, X. F., and Yao, T. P. (2002). HDAC6 is a microtubule-associated deacetylase. Nature 417, 455-458; and Piperno, G., LeDizet, M., and Chang, X. J. (1987). Microtubules containing acetylated alpha-tubulin in mammalian cells in culture. J. Cell Biol. 104, 289-302]. Small molecules (˜2-5 μM) of interest were retested using a sample from the plate of stock solutions by fluorescence microscopy and comparison to the effects of trichostatin (300 nM to 1 μM).\n(§3) A549 cells were seeded at a density of 50,000/200 μl in DMEM+ on the surface of glass coverslips on top of Parafilm in a 10 cm dish and allowed to attach overnight. For detection of acetylated α-tubulin, cells were permeabilized and fixed with 100 mM K-PIPES, pH 6.8, 10 mM EGTA, 1 mM MgCl2, 0.2% triton X-100, 0.2% glutaraldehyde for fifteen minutes. […]"}, "histone deacetylation": {"tested_on": "histone deacetylation", "test": "acetylated lysine / acetylated histone in cells (AcLysine cytoblot, immunofluorescence, Western blot)", "type": "cell-based, human", "conditions": "A549 (also BS-C-1) cells, tubacin, niltubacin 2 μM, histacin 20 μM, library ~2-5 μM, 18 h", "description": "as §1, §2, §3"}, "[4]": {"tested_on": "α-tubulin acetylation in the presence of ITSA1", "test": "ITSA1+AcTubulin assay: suppression of induced acetylation by ITSA1", "type": "cell-based, human", "conditions": "ITSA1 50 μM, A549 cells", "description": "A549 cells were seeded at a density of 4,000 cells/50 μl in DMEM+ in white tissue culture-treated 384-well plates (Nalge Nunc) using a Multidrop 384 liquid dispenser (Labsystems). Library small molecules were pinned twice (100-150 nl/pin) from ˜1 mM stock solutions (DMSO) and incubated for 18 hours. For the ITSA1+AcTubulin assay, ITSA1 (50 μM) was added four hours after pin-transfer of library molecules. Media was aspirated with a 16-channel wand. […] Plates were read on an Analyst plate reader (LJL Biosystems) with an integration time of 0.1 seconds.\nBromodeoxyuridine labeling and fluorescence-activated cell sorting (FACS) were performed as described (K. M. Koeller et al., Chemistry & Biology, 10 (5) (2003) pp. 397-410). […]"}},
  "note": "“Also recorded” adds a separate entry of the source.",
  "data": [
    {"smiles": "[O-][n+]1ccccc1SC[C@@H](O)[C@@H](c1ccccc1)[C@@H](O)c1ccc(CO)cc1", "note": "(racemic) [compound 13, (±)-(1R,2S,3S)-1-[4-(hydroxymethyl)phenyl]-4-[(1-oxido-2-pyridinyl)thio]-2-phenyl-1,3-butanediol]", "values": [
      {"measurement": "developmental phenotype of zebrafish embryos", "setting": "[1]", "value": "causes a wavy notochord phenotype; also recorded: developed folds in the anterior trunk region of the notochord"}
    ]},
    {"smiles": "O=C(c1ccc(Cl)cc1Cl)n1nnc2ccccc21", "note": "[ITSA1, reference compound]", "values": [
      {"measurement": "polymerization of microtubules after removal of nocodazole", "setting": "[2]", "value": "neither tubacin nor ITSA1 (50 μM; 30 minutes) prevents the repolymerization of microtubules; also recorded: neither tubacin nor ITSA1 prevented the polymerization of microtubules"},
      {"measurement": "suppression by ITSA1, stated as known", "setting": "[3]", "value": "suppresses (reduces) the ability of TSA to increase acetylation levels of both α-tubulin and histones"}
    ]},
    {"smiles": "Nc1ccccc1NC(=O)CCCCCC(=O)Nc1cccc([C@@H]2O[C@H](CN3CCN(Cc4ccccc4)CC3)C[C@H](c3ccc(CO)cc3)O2)c1", "note": "[histacin]", "values": [
      {"measurement": "effect on tubulin deacetylation / α-tubulin acetylation in cells", "setting": "α-tubulin deacetylation", "value": "without affecting α-tubulin acetylation levels"},
      {"measurement": "effect on tubulin deacetylation / α-tubulin acetylation in cells", "setting": "α-tubulin deacetylation; listed as 410 F1", "value": "no effect on α-tubulin acetylation"},
      {"measurement": "effect on histone deacetylation / lysine or histone acetylation in cells", "setting": "histone deacetylation", "value": "increased acetylated histone levels"},
      {"measurement": "effect on histone deacetylation / lysine or histone acetylation in cells", "setting": "histone deacetylation; listed as 410 F1", "value": "strongly increased lysine acetylation"},
      {"measurement": "suppression of the induced acetylation by ITSA1", "setting": "[4]", "value": "cannot be suppressed by ITSA1"}
    ]}
  ]
}
